Measurements: ChEMBL document CHEMBL1135260 (Bioorg Med Chem Lett, 2002)

The compounds below were run against T1, Neuropeptide Y receptor type 5 (Homo sapiens, UniProt Q15761) (assay: Concentration that inhibited 50% of binding of 125 I -PYY ligand to human Neuropeptide Y receptor type 5).
T1 sequence (Q15761 whole entry): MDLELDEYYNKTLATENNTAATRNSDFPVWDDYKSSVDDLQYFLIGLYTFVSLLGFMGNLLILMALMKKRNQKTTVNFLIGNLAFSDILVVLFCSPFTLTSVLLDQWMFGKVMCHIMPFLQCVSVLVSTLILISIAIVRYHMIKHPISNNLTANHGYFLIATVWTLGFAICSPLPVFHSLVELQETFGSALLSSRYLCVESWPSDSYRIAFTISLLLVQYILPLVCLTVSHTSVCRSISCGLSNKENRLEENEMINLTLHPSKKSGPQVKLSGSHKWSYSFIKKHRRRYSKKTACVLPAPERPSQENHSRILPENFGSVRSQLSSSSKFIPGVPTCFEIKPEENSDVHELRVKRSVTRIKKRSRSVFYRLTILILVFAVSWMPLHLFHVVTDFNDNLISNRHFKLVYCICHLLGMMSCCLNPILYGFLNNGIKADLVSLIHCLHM
Format: single protein

First: c1ccc(-c2nc3c([nH]2)CCOc2ccccc2-3)cc1
Second: COc1ccc2c(c1)-c1nc(-c3ccccc3)[nH]c1CC2
The IC50 of the first is 120-fold higher: 6100 nM for the first, 52 nM for the second. The second is the more potent here.

First: Fc1ccc2c(c1)-c1nc(-c3cccnc3)[nH]c1CCC2
Second: COc1ccc2c(c1)-c1nc(-c3ccccn3)[nH]c1CCC2
The IC50 of the first is 17-fold lower: 6.4 nM for the first, 110 nM for the second. The first is the more potent here.

Going from `Cc1[nH]c(-c2ccccc2)nc1-c1cccnc1` [FR-79620] to `c1ccc(-c2nc3c([nH]2)-c2ccccc2CCC3)nc1`, the IC50 falls from 427 nM to 110 nM (3.9-fold). The second is the more potent here.

In the case of `c1ccc2c(c1)CCCc1[nH]c(-c3c[nH]cn3)nc1-2`, the IC50 is reported as 570 nM.
